Results: patent US11479525B2, “Propenylamines and methods of making and using same” (3M INNOVATIVE PROPERTIES COMPANY, priority 2016, dated 2022)

Assay: Atmospheric lifetime from the rate of reaction with hydroxyl radicals, relative to reference compounds (FTIR gas cell)
Assay type: physicochemical
Settings: gas phase reaction with hydroxyl radical relative to chloromethane/ethane; for Atmospheric Lifetime, E-isomer: E-isomer of the 1-propenylamine; for Atmospheric Lifetime, Z-isomer: Z-isomer of the 1-propenylamine
Protocol: The atmospheric lifetimes of 1-propenylamines were determined from their rate of reaction with hydroxyl radicals. The pseudo-first order rates for the reaction of the gaseous 1-propenylamines with hydroxyl radical were measured in a series of experiments relative to reference compounds such as chloromethane and ethane. The measurements were performed in a 5.7 L, heated FTIR gas cell equipped with a polished semiconductor-grade quartz window. An Oriel Instruments UV Lamp, Model 66921 equipped with a 480 W mercury-xenon bulb was used to generate hydroxyl radicals by photolyzing ozone in the presence of water vapor. The concentrations of the 1-propenylamine and the reference compound were measured as a function of reaction time using an I-Series FTIR from Midac Corporation. The atmospheric lifetimes were calculated from the reaction rates for the 1-propenylamines relative to the reference compounds and the reported lifetime of the reference compounds as shown below:
[formula] where τx is the atmospheric lifetime of the 1-propenylamine, τr is the atmospheric lifetime of the reference compound, and kx and kr are the rate constants for the reaction of hydroxyl radical with the isomeric 1-propenylamines and the reference compound, respectively.

SMILES	Atmospheric Lifetime, E-isomer [Yrs]	Atmospheric Lifetime, Z-isomer [Yrs]
FC(=C(F)C(F)(F)F)N(C(F)(F)F)C(F)(F)C(F)(F)F [C2F5(CF3)N—CF═CFCF3]	1.4	3.5
FC(=C(F)C(F)(F)F)N(C(F)(F)F)C(F)(F)F [(CF3)2N—CF═CFCF3, 1,2,3,3,3-pentafluoro-N,N-bis(trifluoromethyl)prop-1-en-1-amine]	0.71	1.9
